Results from patent US20250179059A1 (The Regents of the University of California, priority 2021, published 2025).
Like-named read-outs stand apart in the source and are kept apart here.

Tests used:
[1] = target: T1, human BRD4 bromodomain II (Homo sapiens, UniProt O60885); test: Bromodomain binding assay (AlphaScreen), BRD4 BDII
T1 construct: human BRD4 bromodomain II [based on Genbank NM_058243, residues 349-460]; host or cells: E. coli
Procedure, shortened: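 Compounds (10-point, 3-fold series) were preincubated 30 min at room temperature with E. coli-expressed N-terminal His6-tagged BRD4 BDII (residues 349-460) or BDI (residues 44-170) in 50 mM HEPES pH 7.5, 100 mM NaCl, 0.05% CHAPS, 0.1% BSA, 1% DMSO. Displacement of biotinylated tetra-acetylated H4 1-21 peptide was read by AlphaScreen; IC50 from curve fitting.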

[2] = system: human SKM-1 acute myeloid leukemia cells; test: SKM-1 antiproliferation cell-based assay (ATPlite); conditions: Homo sapiens
Procedure, shortened: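 Log-phase cells in RPMI 1640/15% FBS were seeded at 34722 cells/mL and exposed for 4 days to nine-concentration DMSO serial dilutions in triplicate. Viability was read as ATP luminescence (ATPlite 1step), and IC50 values came from variable-slope non-linear regression.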

[3] = AlphaScreen assay, Table C2, read-out: BRD4 BDII IC50
[4] = SKM-1, 96 h, SKM-1 antiproliferation assay, 4 days, Table C2
[5] = BRD4 BDII AlphaScreen assay, read-out: BRD4 BD2 IC50
[6] = SKM-1, SKM-1 antiproliferation assay

SMILES | IC50 [1, 3] | GI50 [2, 4] | IC50 [1, 5] | GI50 [2, 6]
Cn1ccn(-c2ccc(-c3cc(F)cc(-c4ccnc(N5CCNc6ccccc65)c4)c3O)cc2Cl)c1=O [Example 532, 1-(3-chloro-3′-(2-(3,4-dihydroquinoxalin-1(2H)-yl)pyridin-4-yl)-5′-fluoro-2′-hydroxy-[1,1′-biphenyl]-4-yl)-3-methyl-1H-imidazol-2(3H)-one] | > 100 nM | ≥ 3000 nM |  | 
COC(=O)Oc1c(-c2ccc(-n3ccn(C)c3=O)c(Cl)c2)cc(F)cc1-c1cnc(C)c(N2CCN(C(C)C)CC2)c1 [Example 877] |  |  | > 100 nM | 0.3 to 30 nM
COc1ncc(-c2nc(C)cc(-c3ccc(-n4ccn(C)c4=O)c(Cl)c3)c2O)cc1N1CCN(C(C)(C)C)CC1 [Example 959, 1-(4-(5′-(4-(tert-butyl)piperazin-1-yl)-3-hydroxy-6′-methoxy-6-methyl-[2,3′-bipyridin]-4-yl)-2-chlorophenyl)-3-methyl-1,3-dihydro-2H-imidazol-2-one] |  |  | 1 to 10 nM | 0.3 to 30 nM
[2H]C([2H])([2H])n1ccn(-c2ccc(-c3cc(F)cc(-c4cccc(N5CCN(C(C)(C)C)CC5)c4)c3O)cc2Cl)c1=O [Example 886] |  |  | 1 to 10 nM | 0.3 to 30 nM
CC(C)N1[C@H](C)CN(c2cccc(-c3cc(F)cc(-c4ccc(-n5ccn(C)c5=O)c(Cl)c4)c3O)c2)C[C@@H]1C [Example 906, 1-(3-chloro-5′-fluoro-2′-hydroxy-3″-((3R,5S)-4-isopropyl-3,5-dimethylpiperazin-1-yl)-[1,1′:3′,1″-terphenyl]-4-yl)-3-methyl-1H-imidazol-2(3H)-one] |  |  | 0.01 to 1 nM | 0.3 to 30 nM
CC(=O)Nc1ccc(-c2cccc(-c3cc(C(N)=O)nc(N4CCNCC4)c3)c2O)cc1F [Example 273, 4-(4′-acetamido-3′-fluoro-2-hydroxy-[1,1′-biphenyl]-3-yl)-6-(piperazin-1-yl)picolinamide] | 10 to 100 nM | 300 to 3000 nM |  | 
CC(=O)Nc1ncc(-c2cc(F)cc(-c3cccc(N4CCN(C(C)(C)C)CC4)c3)c2O)cn1 [Example 907, N-(5-(3′-(4-(tert-butyl)piperazin-1-yl)-5-fluoro-2-hydroxy-[1,1′-biphenyl]-3-yl)pyrimidin-2-yl)acetamide] |  |  | > 100 nM | > 3000 nM
Cn1ccn(-c2ccc(-c3cc(F)cc(-c4ccnc(N5CC[C@H](N)C5)c4)c3N)cc2Cl)c1=O [Example 541, (S)-1-(2′-amino-3′-(2-(3-aminopyrrolidin-1-yl)pyridin-4-yl)-3-chloro-5′-fluoro-[1,1′-biphenyl]-4-yl)-3-methyl-1H-imidazol-2(3H)-one] | 1 to 10 nM | 30 to 300 nM |  | 
CC(=O)Nc1ccc(-c2cccc(-c3ccnc(N4CC5(CNC5)C4)c3)c2O)cc1F [Example 270, N-(3′-(2-(2,6-diazaspiro[3.3]heptan-2-yl)pyridin-4-yl)-3-fluoro-2′-hydroxy-[1,1′-biphenyl]-4-yl)acetamide] | 1 to 10 nM | 300 to 3000 nM |  | 
Cn1ccn(-c2c(Cl)cc(-c3cc(F)cc(-c4ccnc(N5CCNCC5)c4)c3O)cc2Cl)c1=O [Example 408, 1-(3,5-dichloro-5′-fluoro-2′-hydroxy-3′-(2-(piperazin-1-yl)pyridin-4-yl)-[1,1′-biphenyl]-4-yl)-3-methyl-1H-imidazol-2(3H)-one] | 10 to 100 nM | 300 to 3000 nM |  | 
Cn1ccn(-c2ccc(-c3cc(F)cc(-c4ccc(C(F)(F)F)c(N5CCN(C(C)(C)C)CC5)c4)c3O)cc2Cl)c1=O [Example 810, 1-(3″-(4-(tert-butyl)piperazin-1-yl)-3-chloro-5′-fluoro-2′-hydroxy-4″-(trifluoromethyl)-[1,1′:3′,1″-terphenyl]-4-yl)-3-methyl-1H-imidazol-2(3H)-one] | 1 to 10 nM | 30 to 300 nM |  | 
CC(=O)Nc1cnc(-c2cc(F)cc(-c3cccc(N4CCN(C(C)(C)C)CC4)c3)c2O)nc1 [Example 894] |  |  | > 100 nM | 300 to 3000 nM
O=C1CCCCN1c1ccc(-c2cccc(-c3ccnc(N4CCNCC4)c3)c2O)cc1F [Example 263, 1-(3-fluoro-2′-hydroxy-3′-(2-(piperazin-1-yl)pyridin-4-yl)-[1,1′-biphenyl]-4-yl)piperidin-2-one] | 10 to 100 nM | 300 to 3000 nM |  | 
CN1CCN(c2ccc(-c3cc(F)cc(-c4cnc(-c5ccn[nH]5)c(N5CCNCC5)c4)c3O)cc2Cl)C1=O [Example 391, 1-(3-chloro-5′-fluoro-2′-hydroxy-3′-(5-(piperazin-1-yl)-6-(1H-pyrazol-5-yl)pyridin-3-yl)-[1,1′-biphenyl]-4-yl)-3-methylimidazolidin-2-one] | 1 to 10 nM | 30 to 300 nM |  | 
Cc1nc(-c2cc(F)cc(-c3cccc(N4CCN(C(C)(C)C)CC4)c3)c2O)ccc1-n1ccn(C)c1=O [Example 936, 1-(6-(3′-(4-(tert-butyl)piperazin-1-yl)-5-fluoro-2-hydroxy-[1,1′-biphenyl]-3-yl)-2-methylpyridin-3-yl)-3-methyl-1H-imidazol-2(3H)-one] |  |  | > 100 nM | 300 to 3000 nM
COc1ncc(-c2cc(F)cc(-c3ccc(-n4ccn(C)c4=O)c(Cl)c3)c2O)cc1N1CCCN(C(C)(C)C)CC1 [Example 853, 1-(3′-(5-(4-(tert-Butyl)-1,4-diazepan-1-yl)-6-methoxypyridin-3-yl)-3-chloro-5′-fluoro-2′-hydroxy-[1,1′-biphenyl]-4-yl)-3-methyl-1H-imidazol-2(3H)-one] |  |  | 0.01 to 1 nM | 0.3 to 30 nM

The next lines start with the values.

IC50 [1, 3] | GI50 [2, 4] | IC50 [1, 5] | GI50 [2, 6] | SMILES
0.01 to 1 nM | 30 to 300 nM |  |  | COCCCn1cc(-c2cc(F)cc(-c3ccc(-n4ccn(C)c4=O)c(Cl)c3)c2O)cc(N2CCN[C@H](C)C2)c1=O [Example 660, (R)-5-(3′-chloro-5-fluoro-2-hydroxy-4′-(3-methyl-2-oxo-2,3-dihydro-1H-imidazol-1-yl)-[1,1′-biphenyl]-3-yl)-1-(3-methoxypropyl)-3-(3-methylpiperazin-1-yl)pyridin-2(1H)-one]
1 to 10 nM | 300 to 3000 nM |  |  | CC(=O)Nc1ccc(-c2cccc(-c3ccnc(N4CCN[C@H](C)C4)c3)c2O)cc1Cl [Example 256, (R)-N-(3-chloro-2′-hydroxy-3′-(2-(3-methylpiperazin-1-yl)pyridin-4-yl)-[1,1′-biphenyl]-4-yl)acetamide]
0.01 to 1 nM | 0.3 to 30 nM |  |  | Cn1ccn(-c2ccc(-c3cc(F)cc(-c4ccnc(N5CCC[C@H](N)C5)c4)c3O)cc2Cl)c1=O [Example 411, (S)-1-(3′-(2-(3-aminopiperidin-1-yl)pyridin-4-yl)-3-chloro-5′-fluoro-2′-hydroxy-[1,1′-biphenyl]-4-yl)-3-methyl-1H-imidazol-2(3H)-one]
1 to 10 nM | 0.3 to 30 nM |  |  | COc1ncc(-c2cc(F)cc(-c3ccc(-n4ccn(C)c4=O)c(Cl)c3)c2O)cc1N1CCN(C(C)(C)C2CC2)CC1 [Example 847, 1-(3-chloro-3′-(5-(4-(2-cyclopropylpropan-2-yl)piperazin-1-yl)-6-methoxypyridin-3-yl)-5′-fluoro-2′-hydroxy-[1,1′-biphenyl]-4-yl)-3-methyl-1H-imidazol-2(3H)-one]
0.01 to 1 nM | 0.3 to 30 nM |  |  | Cc1ncc(-c2cc(F)cc(-c3ccc(-n4ccn(C)c4=O)c(Cl)c3)c2O)cc1N1CC(O)(CO)C1 [Example 839, 1-(3-chloro-5′-fluoro-2′-hydroxy-3′-(5-(3-hydroxy-3-(hydroxymethyl)azetidin-1-yl)-6-methylpyridin-3-yl)-[1,1′-biphenyl]-4-yl)-3-methyl-1H-imidazol-2(3H)-one]
1 to 10 nM | 30 to 300 nM |  |  | CC(=O)Nc1ccc(-c2cccc(-c3ccnc(N4CC[C@@H](N)C4)c3)c2O)cc1F [Example 261, (R)-N-(3′-(2-(3-aminopyrrolidin-1-yl)pyridin-4-yl)-3-fluoro-2′-hydroxy-[1,1′-biphenyl]-4-yl)acetamide]
1 to 10 nM | 30 to 300 nM |  |  | CN1CCN(c2ccc(-c3cc(F)cc(-c4cc(N5CC[C@H](N)C5)c(=O)n(C)c4)c3O)cc2Cl)C1=O [Example 394, (S)-3-(3-aminopyrrolidin-1-yl)-5-(3′-chloro-5-fluoro-2-hydroxy-4′-(3-methyl-2-oxoimidazolidin-1-yl)-[1,1′-biphenyl]-3-yl)-1-methylpyridin-2(1H)-one]
0.01 to 1 nM | 0.3 to 30 nM |  |  | Cn1ccn(-c2ccc(-c3cc(F)cc(-c4cnnc(N5CC[C@@](C)(O)C5)c4)c3O)cc2Cl)c1=O [Example 832, (R)-1-(3-chloro-5′-fluoro-2′-hydroxy-3′-(6-(3-hydroxy-3-methylpyrrolidin-1-yl)pyridazin-4-yl)-[1,1′-biphenyl]-4-yl)-3-methyl-1H-imidazol-2(3H)-one]
0.01 to 1 nM | 0.3 to 30 nM |  |  | Cn1ccn(-c2ccc(-c3cc(F)cc(-c4cc(N5CC[C@@](C)(O)C5)n(C)c(=O)c4)c3O)cc2Cl)c1=O [Example 777, (R)-4-(3′-chloro-5-fluoro-2-hydroxy-4′-(3-methyl-2-oxo-2,3-dihydro-1H-imidazol-1-yl)-[1,1′-biphenyl]-3-yl)-6-(3-hydroxy-3-methylpyrrolidin-1-yl)-1-methylpyridin-2(1H)-one]
0.01 to 1 nM | 0.3 to 30 nM |  |  | Cn1ccn(-c2ccc(-c3cc(F)cc(-c4cc(N5CCN6CCCCC6C5)c5cn[nH]c5c4)c3O)cc2Cl)c1=O (stereo not drawn) [Example 601, 1-(3-chloro-5′-fluoro-3′-(4-(hexahydro-1H-pyrido[1,2-a]pyrazin-2(6H)-yl)-1H-indazol-6-yl)-2′-hydroxy-[1,1′-biphenyl]-4-yl)-3-methyl-1H-imidazol-2(3H)-one]
0.01 to 1 nM | 0.3 to 30 nM |  |  | Cc1cc(-c2ccc(-n3ccn(C)c3=O)c(Cl)c2)c(O)c(-c2cc(N3CC[C@H](N)C3)c3nc[nH]c3c2)c1 [Example 564]
